{"source": "patent US11234964B2", "about": "“Use of melatonin for the treatment of tumors” (UNIVERSIDAD DE GRANADA, priority 2017, dated 2022)", "key": {"[1]": {"details": "athymic nude (nu/nu), mouse, in vivo", "method": "(§1) For the in vivo assays, athymic nude mice (nu/nu) (Janvier, Pays de la Loire, France) of about 5-6 weeks of age (18-20 g) were used. The animals were held in the animal housing unit of the Biomedical Research Center of University of Granada (CIBM) in sterile conditions and under controlled photoperiod (12:12 h) and temperature (22±1° C.) environments, with ad libitum water and laboratory diet. The handling and transplant of the animals was carried out in a laminar flow biosafety cabinet. The animals were anesthetized with an i.p. injection of ketamine (80 mg/kg) and xylazine (4 mg/kg).\n(§2) Xenografts were performed with CAL-27 and SCC9 cells (the latter being resistant to melatonin). Cells enzymatically separated with trypsin-EDTA are resuspended at a concentration of 4×10^6 cells per mouse in PBS. Cell viability is determined by means of the Trypan Blue test. The cells are injected into the left flank of the mouse, with a volume of 200 μL of cell suspension being injected into each mouse with the help of a 1 mL syringe with a needle measuring 16×0.5 mm.\nThe experimental groups were as follows: • 1. […]\nThe concentration of melatonin in the tumors was measured after sacrificing the animals after 21 days. When it is injected directly into the tumor, the concentration of melatonin cannot be measured due to the limited amount of sample taking into account that the tumor practically disappears."}, "[2]": {"system": "SCC-9 cells", "experiment": "Mitochondrial function and free radicals in melatonin-resistant cells", "format": "cell-based", "source_text": "The relationship between the mitochondrial changes caused by melatonin and the cell death induced by this molecule in these tumor cells was studied. Melatonin increases the number of mitochondria as well as the number of cristae, DNA, and mitochondrial mass. The result is an increase in respiratory chain complexes, and accordingly an increase in oxygen consumption, which is related to an increase in free radicals and oxidative stress reflected by an increase in the GSSG/GSH ratio. However, the antioxidant capacity is not modified. The activity and the expression of antioxidant enzymes such as GPx and the GRd is not modified either. […] To carry out the assays, CAL-27 and SCC9 cells have been used as typical example of head and neck squamous cell carcinoma (HNSCC) cancer cells."}, "[3]": {"system": "CAL-27 tumor cells", "experiment": "GPx and GRd antioxidant enzyme activity in tumor cells", "format": "cell-based", "source_text": "The relationship between the mitochondrial changes caused by melatonin and the cell death induced by this molecule in these tumor cells was studied. Melatonin increases the number of mitochondria as well as the number of cristae, DNA, and mitochondrial mass. The result is an increase in respiratory chain complexes, and accordingly an increase in oxygen consumption, which is related to an increase in free radicals and oxidative stress reflected by an increase in the GSSG/GSH ratio. However, the antioxidant capacity is not modified. The activity and the expression of antioxidant enzymes such as GPx and the GRd is not modified either."}, "[4]": {"system": "tumor cells", "experiment": "Mitochondrial changes, oxygen consumption and free radicals in tumor cells", "format": "cell-based", "source_text": "The relationship between the mitochondrial changes caused by melatonin and the cell death induced by this molecule in these tumor cells was studied. Melatonin increases the number of mitochondria as well as the number of cristae, DNA, and mitochondrial mass. The result is an increase in respiratory chain complexes, and accordingly an increase in oxygen consumption, which is related to an increase in free radicals and oxidative stress reflected by an increase in the GSSG/GSH ratio. However, the antioxidant capacity is not modified. The activity and the expression of antioxidant enzymes such as GPx and the GRd is not modified either. […] In other words, mitochondrial activity increases, and accordingly free radicals which induce cell death also increase. To carry out the assays, CAL-27 and SCC9 cells have been used as typical example of head and neck squamous cell carcinoma (HNSCC) cancer cells."}, "[5]": {"system": "tumor cells (CAL-27)", "experiment": "Cell death, apoptosis and proliferation of tumor cells in vitro", "format": "cell-based", "source_text": "To carry out the assays, CAL-27 and SCC9 cells have been used as typical example of head and neck squamous cell carcinoma (HNSCC) cancer cells. […] The relationship between the mitochondrial changes caused by melatonin and the cell death induced by this molecule in these tumor cells has been studied. Melatonin increases mitochondrial mass, mitochondrial DNA, the number of mitochondria, as well as the number of mitochondrial cristae. The result is an increase in respiratory chain complexes, and accordingly an increase in oxygen consumption, which is related to an increase in free radicals and oxidative stress. […] In other words, the cytotoxic effects of melatonin in the tumor cells are related to an increase in mitochondrial function, and the increase in mitochondrial function in the tumor cell in turn induces apoptosis processes, which also entails the inhibition of protein synthesis."}, "[6]": {"system": "tumor cells", "experiment": "Melatonin penetration in tumor cells in vitro", "format": "cell-based", "details": "cells incubated with 1500 μM melatonin for 24 hours", "method": "To carry out the assays, CAL-27 and SCC9 cells have been used as typical example of head and neck squamous cell carcinoma (HNSCC) cancer cells.\nIn the in-vitro experiments, the tumor cells were incubated with different concentrations of melatonin. It was observed that melatonin readily enters the tumor cells, reaching levels of 450 ng/mg of proteins after incubating the cells with melatonin at a dose of 1500 μM for 24 hours (FIG. 1)."}, "[7]": {"system": "CAL-27 and SCC9 cells xenografts", "experiment": "Tumor volume in xenografted mice (photographs, NMR analysis)", "format": "in vivo, athymic nude mice (nu/nu)", "details": "for tumor volume: intratumoral injection", "method": "as §1, §2\nThe body weight and tumor size are measured and recorded two or three times a week throughout the experiment. The tumor volume is calculated using the following formula: ½ (L×W2) (mm^3), where L is the length and W is the width. After the appearance of a tumoral node (100 mm^3), the mice carrying the tumors are randomly assigned to several groups.\nThe experimental groups were as follows: • 1. Mouse with untreated tumor • 2. Mouse with tumor treated with subcutaneously administered melatonin (s.c.) at a dose of 300 mg/kg (4.5% w/v melatonin solution). The concentration of melatonin in the tumor when melatonin is administered through this route is 10 ng/mg of proteins. • 3. Mouse with tumor treated with administered intratumorally melatonin (60 μl of a 0.1% w/v melatonin solution) fora tumor volume of 100 mm^3. 0.1% of melatonin is the minimum effective dose (in vitro) for inducing 80% cell death. When 0.1% of melatonin is administered, a concentration of 450 ng/mg of proteins is reached in the tumor. • 4. Mouse with tumor treated with intratumorally melatonin administered (60 μl of a 4.5% melatonin solution) for a tumor volume of 100 mm^3.\nTherefore, once the tumor reached the indicated volume of 100 mm^3, it is treated with melatonin daily for 21 days according to the following protocol: • A. Injected s.c. (300 mg/kg which is equivalent to a 4.5% solution) • B. Injected directly into the tumor (60 μl of a 0.1% melatonin solution) • C. Injected directly into the tumor (60 μl of a 4.5% melatonin solution) • D. Injected directly into the tumor (60 μl of a 0.1% melatonin solution) until the complete disappearance of the tumor (28 days). • E. Photographs of the tumor were taken at the end of the treatment of each of the groups. […]"}}, "note": "Entries after “also recorded” stand apart in the source; their conditions may differ.", "data": [{"smiles": "COc1ccc2[nH]cc(CCNC(C)=O)c2c1", "note": "[melatonin, N-acetyl-5-methoxytryptamine]", "values": [{"measurement": "concentration of melatonin reached in the tumor", "setting": "[1]", "result": "450 ng/mg of proteins"}, {"measurement": "mitochondrial oxygen consumption and production of free radicals", "setting": "[2]; SCC-9 cells, compared with CAL-27", "result": "less production of reactive oxygen species; also recorded: much lower"}, {"measurement": "sensitivity of cells to melatonin", "setting": "[2]; SCC-9 head and neck cancer cells", "result": "more resistant"}, {"measurement": "SOD", "setting": "[3]", "result": "slight increase"}, {"measurement": "antioxidant capacity", "setting": "[3]", "result": "not modified"}, {"measurement": "GPx and GRd antioxidant enzyme activity", "setting": "[3]; CAL-27 tumor cells", "result": "not modified; also recorded: does not increase"}, {"measurement": "ATP production", "setting": "[4]", "result": "does not increase"}, {"measurement": "GSSG/GSH ratio (oxidative stress)", "setting": "[4]", "result": "increase"}, {"measurement": "free radicals", "setting": "[4]", "result": "increase"}, {"measurement": "intermediate products of the Krebs cycle (metabolomics)", "setting": "[4]", "result": "increase"}, {"measurement": "mitochondrial DNA", "setting": "[4]", "result": "increases"}, {"measurement": "mitochondrial mass", "setting": "[4]", "result": "increases"}, {"measurement": "number of mitochondria and number of cristae", "setting": "[4]", "result": "increases"}, {"measurement": "oxygen consumption", "setting": "[4]", "result": "increase"}, {"measurement": "cell cycle", "setting": "[5]", "result": "stopping of cell cycle in the S and G2 phases"}, {"measurement": "cell proliferation", "setting": "[5]", "result": "Inhibition"}, {"measurement": "size and number of colonies of tumor cells", "setting": "[5]; CAL-27 irradiated and treated with melatonin", "result": "significant decrease"}, {"measurement": "minimum effective dose (in vitro) for inducing 80% cell death", "setting": "[5]; in vitro", "result": 0.1, "unit": "%"}, {"measurement": "apoptosis", "setting": "[5]; tumor cells, high concentrations", "result": "increases apoptosis in a dose and time dependent manner"}, {"measurement": "melatonin levels in tumor cells", "setting": "[6]", "result": "450 ng/mg of proteins"}, {"measurement": "tumor volume", "setting": "[7]; 21 days after treatment", "result": "decreases drastically; also recorded: disappearing almost completely; also recorded: the decrease in tumor volume is so drastic that the tumor can hardly be observed"}, {"measurement": "tumor volume", "setting": "[7]; 28 days after treatment", "result": "completely disappears; also recorded: disappears completely; also recorded: virtually disappeared"}, {"measurement": "necrotic areas in tumors (NMR images)", "setting": "[7]; s.c. administered melatonin", "result": "certain necrotic areas are observed"}, {"measurement": "tumor volume with respect to the control", "setting": "[7]; subcutaneous (systemic route), 300 mg/kg, 21 days", "result": "decreases very little; also recorded: the decrease in tumor volume is much lower; also recorded: the tumor volume decreases, although the effect is not very significant"}]}]}
